Laboratory results from patent publication US11078170B2 (Assembly Biosciences, Inc., priority 2017, dated 2021).

Each molecule was assayed on HBV viral production from HepAD38 cells (assay: Activity of test compounds on viral production from HepAD38 cells (viral load by qPCR of HBV core sequence in supernatant)). Settings: Hepatitis B virus, 120 h, 5 days incubation, HBV DNA in supernatant by qPCR, top concentration 10 μM, read-out: Viral Load EC50 Activity range.
Type: cell-based
Procedure, shortened: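 EC50 and CC50 come from four-parameter fits of supernatant viral load and CellTiter-Glo viability, respectively. Viral load was measured by core-region TaqMan qPCR against HBV DNA standards and compared with DMSO controls. Tet-free HepAD38 cells (50,000/well, 2% FBS) were exposed to compound, highest 10 μM, for 5 days at 37° C.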
For `CN1C(C(=O)Nc2cccc(Cl)c2)CC(c2cccs2)NS1(=O)=O` (racemic) [HBV-CSU-010, Cis-N-(3-chlorophenyl)-2-methyl-5-(thiophen-2-yl)-1,2,6-thiadiazinane-3-carboxamide 1,1-dioxide], the EC50 was less than 1000 nM.
With `CN1C(C(=O)Nc2ccc(F)c(Br)c2)CC(c2ccc(Br)s2)NS1(=O)=O` (stereo not drawn) [HBV-CSU-257, Cis-N-(3-Bromo-4-fluorophenyl)-5-(5-bromothiophen-2-yl)-2-methyl-1,2,6-thiadiazinane-3-carboxamide 1,1-dioxide] the EC50 was less than 1000 nM.
For `COCCN1C(c2cccs2)CC(C(=O)Nc2ccc(F)c(Cl)c2)N(C)S1(=O)=O` (stereo not drawn) [HBV-CSU-064, Cis-N-(3-Chloro-4-fluorophenyl)-6-(2-methoxyethyl)-2-methyl-5-(thiophen-2-yl)-1,2,6-thiadiazinane-3-carboxamide 1,1-dioxide], the EC50 was greater than 5000 nM.
`CN(C)CCN1C(C(=O)Nc2ccc(F)c(Cl)c2)CC(c2nccs2)NS1(=O)=O` (racemic) [HBV-CSU-074, Cis-N-(3-Chloro-4-fluorophenyl)-2-(2-(dimethylamino)ethyl)-5-(thiazol-2-yl)-1,2,6-thiadiazinane-3-carboxamide 1,1-dioxide] gave an EC50 greater than 5000 nM.
`CCOCCN1[C@H](C(=O)Nc2ccc(F)c(Cl)c2)C[C@H](c2nccs2)NS1(=O)=O` (relative stereo) [HBV-CSU-142-ISO-II, Cis-N-(3-Chloro-4-fluorophenyl)-2-(2-ethoxyethyl)-5-(thiazol-2-yl)-1,2,6-thiadiazinane-3-carboxamide 1,1-dioxide] was tested, and the EC50 was less than 1000 nM.
`CN1C(C(=O)Nc2ccc(F)c(Cl)c2)CC(c2cnc(C(F)(F)F)s2)NS1(=O)=O` (stereo not drawn) [HBV-CSU-226, Cis-N-(3-chloro-4-fluorophenyl)-2-methyl-5-(2-(trifluoromethyl)thiazol-5-yl)-1,2,6-thiadiazinane-3-carboxamide 1,1-dioxide] gave an EC50 of 1000 to 5000 nM.
`CN1[C@@H](C(=O)Nc2ccc(F)c(Cl)c2)C[C@@H](c2ccc(-c3ccc(NS(C)(=O)=O)cc3)s2)NS1(=O)=O` (relative stereo) [HBV-CSU-163-ISO-II, Cis-N-(3-chloro-4-fluorophenyl)-2-methyl-5-(5-(4-(methylsulfonamido)phenyl)thiophen-2-yl)-1,2,6-thiadiazinane-3-carboxamide 1,1-dioxide] was tested, and the EC50 was less than 1000 nM.
Work on `O=C(Nc1ccc(F)c(Cl)c1)C1CC(c2cccs2)NS(=O)(=O)N1CCO` (stereo not drawn) [HBV-CSU-041, Cis-N-(3-Chloro-4-fluorophenyl)-2-(2-hydroxyethyl)-5-(thiophen-2-yl)-1,2,6-thiadiazinane-3-carboxamide 1,1-dioxide] yielded an EC50 greater than 5000 nM.
`CN1C(C(=O)Nc2cccc(C#N)c2)CC(c2cccs2)NS1(=O)=O` (racemic) [HBV-CSU-020, Cis-N-(3-cyanophenyl)-2-methyl-5-(thiophen-2-yl)-1,2,6-thiadiazinane-3-carboxamide 1,1-dioxide] was tested, and the EC50 was less than 1000 nM.
`CN(C)CCCOc1ccc(C2CC(C(=O)Nc3ccc(F)c(Cl)c3)N(C)S(=O)(=O)N2)cc1` (racemic) [HBV-CSU-208, Cis-N-(3-chloro-4-fluorophenyl)-5-(4-(3-(dimethylamino)propoxy)phenyl)-2-methyl-1,2,6-thiadiazinane-3-carboxamide 1,1-dioxide] gave an EC50 of less than 1000 nM.
`CN1[C@@H](C(=O)Nc2ccc(F)c(Cl)c2)C[C@@H](c2ncc(-c3ccc(F)cn3)s2)NS1(=O)=O` [HBV-CSU-252-ISO-II, Cis-N-(3-Chloro-4-fluorophenyl)-5-(5-(5-fluoropyridin-2-yl)thiazol-2-yl)-2-methyl-1,2,6-thiadiazinane-3-carboxamide 1,1-dioxide] showed an EC50 greater than 5000 nM.
For `CN1[C@@H](C(=O)Nc2ccc(F)c(Cl)c2)C[C@@H](c2cc(-c3ccccc3)cs2)NS1(=O)=O` [HBV-CSU-148-ISO-II, Cis-N-(3-chloro-4-fluorophenyl)-2-methyl-5-(4-phenylthiophen-2-yl)-1,2,6-thiadiazinane-3-carboxamide 1,1-dioxide], the EC50 was 1000 to 5000 nM.
In the case of `N#CCN1C(C(=O)Nc2ccc(F)c(Cl)c2)CC(c2nccs2)NS1(=O)=O` (racemic) [HBV-CSU-093, Cis-N-(3-Chloro-4-fluorophenyl)-2-(cyanomethyl)-5-(thiazol-2-yl)-1,2,6-thiadiazinane-3-carboxamide 1,1-dioxide], the EC50 is reported as greater than 5000 nM.
With `CN1[C@@H](C(=O)Nc2ccc(F)c(Cl)c2)C[C@@H](c2cc(-c3cncn3C)cs2)NS1(=O)=O` (relative stereo) [HBV-CSU-285-ISO-II, Cis-N-(3-Chloro-4-fluorophenyl)-2-methyl-5-(4-(1-methyl-1H-imidazol-5-yl)thiophen-2-yl)-1,2,6-thiadiazinane-3-carboxamide 1,1-dioxide] the EC50 was less than 1000 nM.
Work on `COC(C)(C)CCN1C(C(=O)Nc2ccc(F)c(Cl)c2)CC(c2nccs2)NS1(=O)=O` (racemic) [HBV-CSU-083, Cis-N-(3-Chloro-4-fluorophenyl)-2-(3-methoxy-3-methylbutyl)-5-(thiazol-2-yl)-1,2,6-thiadiazinane-3-carboxamide 1,1-dioxide] yielded an EC50 greater than 5000 nM.
In the case of `CN1C(C(=O)Nc2ccc(F)c(Cl)c2)CC(c2cnc(-c3ccccc3)s2)NS1(=O)=O` (centres unmarked) [HBV-CSU-235, N-(3-Chloro-4-fluorophenyl)-2-methyl-5-(2-phenylthiazol-5-yl)-1,2,6-thiadiazinane-3-carboxamide 1,1-dioxide], the EC50 is reported as less than 1000 nM.
`Cc1nn(C)cc1-c1ccc([C@H]2C[C@@H](C(=O)Nc3ccc(F)c(Cl)c3)N(C)S(=O)(=O)N2)s1` [HBV-CSU-313-ISO-I, Cis-N-(3-chloro-4-fluorophenyl)-5-(5-(1,3-dimethyl-1H-pyrazol-4-yl)thiophen-2-yl)-2-methyl-1,2,6-thiadiazinane-3-carboxamide 1,1-dioxide] gave an EC50 of less than 1000 nM.
In the case of `CN1C(C(=O)Nc2ccc(F)c(Cl)c2)CC(c2cc(-c3cncs3)cs2)NS1(=O)=O` (racemic) [HBV-CSU-286, Cis-N-(3-Chloro-4-fluorophenyl)-2-methyl-5-(4-(thiazol-5-yl)thiophen-2-yl)-1,2,6-thiadiazinane-3-carboxamide 1,1-dioxide], the EC50 is reported as less than 1000 nM.
`CN1C(C(=O)Nc2ccc(F)c(Cl)c2)CC(c2ncc(-c3ccn(C)n3)s2)NS1(=O)=O` (racemic) [HBV-CSU-280, Cis-N-(3-Chloro-4-fluorophenyl)-2-methyl-5-(5-(1-methyl-1H-pyrazol-3-yl)thiazol-2-yl)-1,2,6-thiadiazinane-3-carboxamide 1,1-dioxide] was tested, and the EC50 was less than 1000 nM.
`O=C(Nc1ccc(F)c(Cl)c1)C1CC(c2nccs2)NS(=O)(=O)N1CCOC(F)(F)F` (racemic) [HBV-CSU-072, Cis-N-(3-Chloro-4-fluorophenyl)-5-(thiazol-2-yl)-2-(2-(trifluoromethoxy)ethyl)-1,2,6-thiadiazinane-3-carboxamide 1,1-dioxide] was tested, and the EC50 was less than 1000 nM.
In the case of `CN1[C@@H](C(=O)Nc2ccc(F)c(Cl)c2)C[C@@H](c2ncc(-c3ccnn3C)s2)NS1(=O)=O` [HBV-CSU-281-ISO-II, Cis-N-(3-Chloro-4-fluorophenyl)-2-methyl-5-(5-(1-methyl-1H-pyrazol-5-yl)thiazol-2-yl)-1,2,6-thiadiazinane-3-carboxamide 1,1-dioxide], the EC50 is reported as 1000 to 5000 nM.
`CN1[C@@H](C(=O)Nc2ccc(F)c(Cl)c2)C[C@@H](c2ncc(-c3ccc(F)cc3)s2)NS1(=O)=O` [HBV-CSU-248-ISO-II, Cis-N-(3-Chloro-4-fluorophenyl)-5-(5-(4-fluorophenyl)thiazol-2-yl)-2-methyl-1,2,6-thiadiazinane-3-carboxamide 1,1-dioxide] gave an EC50 greater than 5000 nM.
`O=C(Nc1ccc(F)c(Cl)c1)C1CC(c2nccs2)NS(=O)(=O)N1CC1CCCO1` (racemic) [HBV-CSU-079-Rac-A, Cis-N-(3-Chloro-4-fluorophenyl)-2-((tetrahydrofuran-2-yl)methyl)-5-(thiazol-2-yl)-1,2,6-thiadiazinane-3-carboxamide 1,1-dioxide] gave an EC50 of less than 1000 nM.
Molecule `COCCN1C(C(=O)Nc2ccc(F)c(Br)c2)CC(c2nccs2)NS1(=O)=O` (racemic) [HBV-CSU-059, Cis-N-(3-bromo-4-fluorophenyl)-2-(2-methoxyethyl)-5-(thiazol-2-yl)-1,2,6-thiadiazinane-3-carboxamide 1,1-dioxide] has an EC50 of less than 1000 nM.
Work on `CN1C(C(=O)Nc2ccc(F)c(Cl)c2)CC(c2ncc(-c3ccc(F)cc3)s2)NS1(=O)=O` (racemic) [HBV-CSU-248, Cis-N-(3-Chloro-4-fluorophenyl)-5-(5-(4-fluorophenyl)thiazol-2-yl)-2-methyl-1,2,6-thiadiazinane-3-carboxamide 1,1-dioxide] yielded an EC50 of less than 1000 nM.
`O=C(Nc1ccc(F)c(Cl)c1)C1CC(c2nccs2)NS(=O)(=O)N1CCc1c[nH]nn1` (racemic) [HBV-CSU-092, Cis-2-(2-(1H-1,2,3-Triazol-4-yl)ethyl)-N-(3-chloro-4-fluorophenyl)-5-(thiazol-2-yl)-1,2,6-thiadiazinane-3-carboxamide 1,1-dioxide] gave an EC50 of 1000 to 5000 nM.
`C=CCN1C(C(=O)Nc2ccc(F)c(Cl)c2)CC(c2cccs2)NS1(=O)=O` (stereo not drawn) [HBV-CSU-040, Cis-2-Allyl-N-(3-chloro-4-fluorophenyl)-5-(thiophen-2-yl)-1,2,6-thiadiazinane-3-carboxamide 1,1-dioxide] was tested, and the EC50 was less than 1000 nM.
`CN1[C@H](C(=O)Nc2ccc(F)c(C(F)(F)F)c2)C[C@H](c2cccs2)NS1(=O)=O` [HBV-CSU-046-ISO-I, Cis-N-(4-Fluoro-3-(trifluoromethyl)phenyl)-2-methyl-5-(thiophen-2-yl)-1,2,6-thiadiazinane-3-carboxamide 1,1-dioxide] showed an EC50 of less than 1000 nM.
Work on `CN1C(C(=O)Nc2ccc(F)c(Cl)c2)CC(c2cc(-c3ccc(NS(C)(=O)=O)cc3)cs2)NS1(=O)=O` (stereo not drawn) [HBV-CSU-171, Cis-N-(3-chloro-4-fluorophenyl)-2-methyl-5-(4-(4-(methylsulfonamido)phenyl)thiophen-2-yl)-1,2,6-thiadiazinane-3-carboxamide 1,1-dioxide] yielded an EC50 of less than 1000 nM.
